Values belong to the compound of their own block, whether it stands above or below them. Non-standard residues stand in square brackets, D forms with d. Residues, ends and D or L forms follow the SMILES beside them. ξ: configuration not given here. *: point of attachment. Ala(1H-tetrazol-5-yl) = N[C@@H](Cc1nnn[nH]1)C(=O)O; ξAla(tetrazol-5-yl) = NC(Cc1nnn[nH]1)C(=O)O; Isobutyryl = CC(C)C(=O)*; Nle = CCCC[C@H](N)C(=O)O; Butyryl = CCCC(=O)*
What was measured:
[1] = Stability test 1: survival rate of peptide in phosphate buffer (pH 7.0) after storage, HPLC; assay type: physicochemical; settings: 100 μM peptide
Method in brief: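 Peptide solutions at 100 μM in phosphate buffer were stored at 40° C. for 1 week to 2 months depending on peptide. Remaining peptide was measured by reverse-phase HPLC peak area against an unstored standard, with survival rate also corrected for water loss through the container from weighing before and after storage.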

[2] = target: T1, VPAC1 receptor (Homo sapiens, UniProt P32241); assay: cAMP assay in CHO-K1 cells, VPAC1 receptor high-expressing cell line; assay type: cell-based; settings: 30 minutes incubation
T1 construct: host or cells: CHO-K1
T1 sequence (P32241 31-457): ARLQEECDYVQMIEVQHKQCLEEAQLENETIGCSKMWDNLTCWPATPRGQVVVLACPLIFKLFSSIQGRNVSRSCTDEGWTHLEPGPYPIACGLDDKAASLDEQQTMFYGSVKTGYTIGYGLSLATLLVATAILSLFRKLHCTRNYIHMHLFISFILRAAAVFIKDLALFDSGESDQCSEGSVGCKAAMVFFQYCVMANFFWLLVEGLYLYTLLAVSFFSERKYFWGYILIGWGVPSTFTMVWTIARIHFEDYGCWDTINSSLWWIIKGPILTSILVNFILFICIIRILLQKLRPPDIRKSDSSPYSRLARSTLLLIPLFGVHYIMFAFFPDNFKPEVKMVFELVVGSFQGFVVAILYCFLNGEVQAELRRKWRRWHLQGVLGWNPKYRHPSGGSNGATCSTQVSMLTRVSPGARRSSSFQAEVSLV
Protocol: The cells were cultured for 18 to 24 hours at 37° C. in a 5% CO2 incubator, adhering the cells to the plate. […] A 5-fold dilution series was then prepared with the same Cell assay buffer and used in an assay. The cAMP assay was carried out using a Hit Hunter cAMP Assay for Biologics kit (product of DiscoveRx, Cat. No. 90-0075LM25), according to the included kit instructions. […] Next, the culture medium was removed from the CHO-K1 cell culture plate, washing was performed with PBS, and the peptide-cAMP antibody liquid mixtures were added to the cells and incubated for 30 minutes under a 5% CO2 atmosphere at 37° C. A working detection solution was then added and the culture plate was shielded from light with aluminum foil and incubated at 25° C. for 1 hour. After incubation, Solution A was added and the culture plate was shielded from light with aluminum foil and then incubated at 25° C. for 3 hours. […] The obtained value for the Relative Luminescence Unit (RLU) was analyzed with GraphPad Prism Ver 6.05 (product of Graph Pad) and the EC50 value was calculated for each peptide.

[3] = Stability test 1: survival rate of peptide in phosphate buffer (pH 7.0) after storage, HPLC; assay type: physicochemical; settings: 100 μM peptide, 0.1% phosphate buffer pH 7.0, head prints 80° C., 8 weeks (Table 4)
[4] = Stability test 1, sample preparation 5: survival rate of peptide in Tris buffer (pH 7.0) after storage, HPLC; assay type: physicochemical; settings: 100 μM peptide; for survival rate after correction for water, 40° C. 4 week / survival rate after correction for water, 40° C. 8 week: Tris buffer pH 7.0, 40° C.; for survival rate after correction for water, 40° C. 4 week: 4 weeks (Table 13); for survival rate after correction for water, 40° C. 8 week: 8 weeks (Table 13); for survival rate after correction for water, 60° C. 1 week / survival rate after correction for water, 60° C. 2 week: Tris buffer pH 7.0, 60° C.; for survival rate after correction for water, 60° C. 1 week: 1 week (Table 13); for survival rate after correction for water, 60° C. 2 week: 2 weeks (Table 13)
Protocol: The peak area value for the peptide in the chromatogram was calculated, and the survival rate (survival rate before correction for water) was calculated using formula (2). The survival rate after correction for water was also calculated from the survival rate before correction for water using formula (3) to take into account the permeability of the container.
The prepared peptide solutions were incubated for 4 weeks or 8 weeks in a 40° C. thermostatic bath, and for one week or 2 weeks in a thermostatic bath at 60° C., to obtain stored samples.
The following gradient time was used only for peptide 30.

[5] = 100 μM peptide, Tris buffer pH 7.0, 60° C.
Protocol: The solution was filtered with a Chromatdisk (product of Merck Millipore, Millex-GV, 0.22 μm). The filtrate was diluted to 100 μM with Tris buffer (pH 7.0) and dispensed into a tube (Protein LoBind Tube by Eppendorf Co.). The prepared peptide solutions were incubated for 1 week or 2 weeks in a 60° C. thermostatic bath to obtain stored samples. A simultaneously prepared sample among the peptide solutions that was not stored was used as a standard sample (initial sample). The standard sample and the stored samples were stored at −30° C. until sample analysis.
• Column: XSelect CSH C18 by Waters Co., 5 μm, 4.6×250 mm • Guard column: XSelect CSH C18 by Waters Co., 5 μm, 4.6×20 mm Guard Cartridge • Detection wavelength: 220 nm • Mobile phase A: 0.1% formic acid aqueous solution • Mobile phase B: 0.1% acetonitrile formate solution • Measuring time: 20 minutes • Measuring sample injection rate: 50 μL • Flow rate: 1.0 mL/min • Column temperature: 40° C. • Sample cooler: 25° C. • Mobile phase delivery: The mixing ratio of mobile phase A and mobile phase B was varied as shown in Table 14 for linear concentration gradient control.

[6] = target: T2, PAC1 receptor (PAC1R) (Homo sapiens, UniProt P41586); settings: background statement; cited from earlier work
T2 sequence (P41586 21-468): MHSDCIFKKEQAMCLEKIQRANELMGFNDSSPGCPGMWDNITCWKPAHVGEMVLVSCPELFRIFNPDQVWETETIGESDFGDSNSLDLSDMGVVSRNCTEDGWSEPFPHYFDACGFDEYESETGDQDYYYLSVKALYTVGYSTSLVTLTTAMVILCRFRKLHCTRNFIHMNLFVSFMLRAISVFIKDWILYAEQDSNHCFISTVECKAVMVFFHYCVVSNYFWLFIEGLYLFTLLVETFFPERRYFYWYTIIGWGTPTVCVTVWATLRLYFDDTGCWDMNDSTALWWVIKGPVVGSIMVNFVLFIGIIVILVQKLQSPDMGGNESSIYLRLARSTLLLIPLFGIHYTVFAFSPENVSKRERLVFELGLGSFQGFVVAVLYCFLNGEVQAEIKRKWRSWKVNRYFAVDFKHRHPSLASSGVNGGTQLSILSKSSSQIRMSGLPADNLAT

[7] = 0.1% phosphate buffer pH 7.0, 40° C., 4 weeks (Table 4)
[8] = phosphate buffer pH 7.0, 40° C., 4 weeks (Table 8)

- EC50 [2]: 111 pM
Compound: CC[C@H](C)[C@H](NC(=O)CNC(=O)C(Cc1nnn[nH]1)NC(=O)[C@H](CO)NC(=O)[C@@H](N)Cc1c[nH]cn1)C(=O)N[C@@H](Cc1ccccc1)C(=O)N[C@@H](C)C(=O)NC(Cc1nnn[nH]1)C(=O)N[C@@H](C)C(=O)N[C@@H](Cc1ccc(O)cc1)C(=O)N[C@@H](C)C(=O)N[C@@H](CCCNC(=N)N)C(=O)N[C@@H](Cc1ccc(O)cc1)C(=O)N[C@@H](CCCNC(=N)N)C(=O)N[C@@H](CCCCN)C(=O)N[C@@H](CCC(N)=O)C(=O)N[C@@H](CCSC)C(=O)N[C@@H](C)C(=O)N[C@H](C(=O)N[C@@H](CCCCN)C(=O)N[C@@H](CCCCN)C(=O)N[C@@H](Cc1ccc(O)cc1)C(=O)N[C@@H](CC(C)C)C(=O)N[C@@H](C)C(=O)N[C@@H](C)C(=O)N[C@H](C(=O)N[C@@H](CC(C)C)C(N)=O)C(C)C)C(C)C (some centres unmarked) [Peptide 3, HSTzGI FATzAY ARYRK QMAVK KYLAA VL] (H-HS[ξAla(tetrazol-5-yl)]GIFA[ξAla(tetrazol-5-yl)]AYARYRKQMAVKKYLAAVL-NH2)
- survival rate after correction for water, 40° C. 4 week [1, 7]: 92.9%
- survival rate after correction for water, 80° C. 8 week [3]: 85.4%

- EC50 [2]: 69 pM
Compound: CCCC[C@H](NC(=O)[C@H](CCC(N)=O)NC(=O)[C@H](CCCCN)NC(=O)[C@H](CCCNC(=N)N)NC(=O)[C@H](Cc1ccc(O)cc1)NC(=O)[C@H](CCCNC(=N)N)NC(=O)[C@H](CO)NC(=O)[C@H](Cc1ccc(O)cc1)NC(=O)[C@H](CO)NC(=O)[C@H](Cc1nnn[nH]1)NC(=O)[C@@H](NC(=O)[C@H](Cc1ccccc1)NC(=O)[C@@H](NC(=O)CNC(=O)[C@H](Cc1nnn[nH]1)NC(=O)[C@H](CO)NC(=O)[C@H](Cc1c[nH]cn1)NC(=O)CCC)[C@@H](C)CC)[C@@H](C)O)C(=O)N[C@@H](C)C(=O)N[C@H](C(=O)N[C@@H](CCCCN)C(=O)N[C@@H](CCCCN)C(=O)N[C@@H](Cc1ccc(O)cc1)C(=O)N[C@@H](CC(C)C)C(=O)N[C@@H](C)C(=O)N[C@@H](C)C(=O)N[C@H](C(=O)N[C@@H](CC(C)C)C(N)=O)C(C)C)C(C)C [Peptide 18] (Butyryl-HS[Ala(1H-tetrazol-5-yl)]GIFT[Ala(1H-tetrazol-5-yl)]SYSRYRKQ[Nle]AVKKYLAAVL-NH2)
- survival rate after correction for water, 40° C. 4 week [1, 8]: 65.1%

- EC50 [2]: 69 pM
Compound: CCCC[C@H](NC(=O)[C@H](CCC(N)=O)NC(=O)[C@H](CCCCN)NC(=O)[C@H](CCCNC(=N)N)NC(=O)[C@H](Cc1ccc(O)cc1)NC(=O)[C@H](CCCNC(=N)N)NC(=O)[C@H](CO)NC(=O)[C@H](Cc1ccc(O)cc1)NC(=O)[C@H](CO)NC(=O)[C@H](Cc1nnn[nH]1)NC(=O)[C@@H](NC(=O)[C@H](Cc1ccccc1)NC(=O)[C@@H](NC(=O)CNC(=O)[C@H](Cc1nnn[nH]1)NC(=O)[C@H](CO)NC(=O)[C@H](Cc1c[nH]cn1)NC(=O)C(C)C)[C@@H](C)CC)[C@@H](C)O)C(=O)N[C@@H](C)C(=O)N[C@H](C(=O)N[C@@H](CCCCN)C(=O)N[C@@H](CCCCN)C(=O)N[C@@H](Cc1ccc(O)cc1)C(=O)N[C@@H](CC(C)C)C(=O)N[C@@H](C)C(=O)N[C@@H](C)C(=O)N[C@H](C(=O)N[C@@H](CC(C)C)C(N)=O)C(C)C)C(C)C [Peptide 19, HSTzGI FTTzSY SRYRK QNIAVK KYLAA VL] (Isobutyryl-HS[Ala(1H-tetrazol-5-yl)]GIFT[Ala(1H-tetrazol-5-yl)]SYSRYRKQ[Nle]AVKKYLAAVL-NH2)
- survival rate after correction for water, 40° C. 4 week [1, 8]: 68.7%

- EC50 [2]: 111 pM
Compound: CC[C@H](C)[C@H](NC(=O)CNC(=O)[C@H](Cc1nnn[nH]1)NC(=O)[C@H](CO)NC(=O)[C@H](Cc1c[nH]cn1)NC(C)=O)C(=O)N[C@@H](Cc1ccccc1)C(=O)N[C@@H](C)C(=O)N[C@@H](Cc1nnn[nH]1)C(=O)N[C@@H](C)C(=O)N[C@@H](Cc1ccc(O)cc1)C(=O)N[C@@H](CO)C(=O)N[C@@H](CCCNC(=N)N)C(=O)N[C@@H](Cc1ccc(O)cc1)C(=O)N[C@@H](CCCNC(=N)N)C(=O)N[C@@H](CCCCN)C(=O)N[C@@H](CCC(N)=O)C(=O)N[C@@H](CC(C)C)C(=O)N[C@@H](C)C(=O)N[C@H](C(=O)N[C@@H](CCCCN)C(=O)N[C@@H](CCCCN)C(=O)N[C@@H](Cc1ccc(O)cc1)C(=O)N[C@@H](CC(C)C)C(=O)N[C@@H](C)C(=O)N[C@@H](C)C(=O)N[C@H](C(=O)N[C@@H](CC(C)C)C(N)=O)C(C)C)C(C)C [Peptide 27, HSTzGI FATzAY SRYRK QLAVK KYLAA VL] (Ac-HS[Ala(1H-tetrazol-5-yl)]GIFA[Ala(1H-tetrazol-5-yl)]AYSRYRKQLAVKKYLAAVL-NH2)
- survival rate after correction for water, 40° C. 4 week [4]: 90.9%
- survival rate after correction for water, 40° C. 8 week [4]: 84.3%
- survival rate after correction for water, 60° C. 1 week [4]: 97.3%
- survival rate after correction for water, 60° C. 2 week [4]: 95.5%

Compound: CC[C@H](C)[C@H](NC(=O)CNC(=O)[C@H](CC(=O)O)NC(=O)[C@H](CO)NC(=O)[C@@H](N)Cc1c[nH]cn1)C(=O)N[C@@H](Cc1ccccc1)C(=O)N[C@H](C(=O)N[C@@H](CC(=O)O)C(=O)N[C@@H](CO)C(=O)N[C@@H](Cc1ccc(O)cc1)C(=O)N[C@@H](CO)C(=O)N[C@@H](CCCNC(=N)N)C(=O)N[C@@H](Cc1ccc(O)cc1)C(=O)N[C@@H](CCCNC(=N)N)C(=O)N[C@@H](CCCCN)C(=O)N[C@@H](CCC(N)=O)C(=O)N[C@@H](CCSC)C(=O)N[C@@H](C)C(=O)N[C@H](C(=O)N[C@@H](CCCCN)C(=O)N[C@@H](CCCCN)C(=O)N[C@@H](Cc1ccc(O)cc1)C(=O)N[C@@H](CC(C)C)C(=O)N[C@@H](C)C(=O)N[C@@H](C)C(=O)N[C@H](C(=O)N[C@@H](CC(C)C)C(N)=O)C(C)C)C(C)C)[C@@H](C)O [Reference Example 1, reference compound]
- survival rate after correction for water, 40° C. 4 week [1, 7]: 37.4%
- survival rate after correction for water, 40° C. 1 week ([1]; phosphate buffer pH 7.0, 40° C., 1 week (Table 10)): 74.9%
- survival rate after correction for water, 40° C. 2 week ([1]; phosphate buffer pH 7.0, 40° C., 2 weeks (Table 6)): 64.3%
- survival rate after correction for water, 40° C. 4 week [1, 8]: 23.9%
- survival rate after correction for water, 40° C. 4 week ([1]; phosphate buffer pH 7.0, 40° C., 4 weeks (Table 10)): 33.0%
- survival rate after correction for water, 40° C. 8 week ([1]; phosphate buffer pH 7.0, 40° C., 8 weeks (Table 6)): 23.7%
- survival rate after correction for water, 40° C. 4 week [4]: 37.9%
- survival rate after correction for water, 40° C. 8 week [4]: 15.6%
- survival rate after correction for water, 60° C. 1 week [4]: 26.4%
- survival rate after correction for water, 60° C. 2 week [4]: 14.6%
- survival rate after correction for water, 60° C. 1 week preservation ([5]; 1 week): 26.6%
- survival rate after correction for water, 60° C. 2 weeks preservation ([5]; 2 weeks): 15.8%
- survival rate after correction for water, 80° C. 8 week [3]: 21.3%

Compound: Pituitary adenylate cyclase-activating polypeptide [PACAP]
- affinity of PAC1R for PACAP relative to affinity of PAC1R for VIP [6]: more than 1000 times

Source: patent US20250263459A1, “STABILIZED PACAP PEPTIDE” (SENJU PHARMACEUTICAL CO., LTD., priority 2019, published 2025)
